Reference: US6723716B1, “7-acylamino-3-heteroarylthio-3-cephem carboxylic acid antibiotics and prodrugs thereof” (Essential Therapeutics, Inc., priority 1999, dated 2004)

What was measured:
human serum proteins = assay: Serum binding determination by ultrafiltration/HPLC; type: in vitro ADME; conditions: by HPLC
Method: (§1) The more accurate measurement of binding of selected cephalosporin compounds was performed using HPLC as described below.
(§2) 1. Serum is placed in a shaking water bath preheated to 37±2° C. for 5 to 10 minutes to heat serum to 37° C. Serum pH is measured and recorded, while serum is 37° C. using pH paper. Measurements are taken twice, 3 minutes apart. If the pH is not 7.4±0.4 then the pH is adjusted by blowing 5% CO2/95% O2 over the serum. After blowing for several minutes, serum is heated to 37° C. and measurements are taken twice, 3 minutes apart using pH paper to determine the pH. Store at 4° C. The serum is stable for 7 days. Always check the pH before each use.
(§3) 2. Before any centrifugation, the centrifuge temperature must be adjusted to 25±2° C. Preheat the centrifuge by spinning for 45 minutes at the same speed to be used in the assay (1900 g) with two tubes of water in the rotor and the temperature set to 25° C. When the centrifuge stops immediately check the temperature of the tubes of water with a calibrated thermometer. The temperature of the tubes of water must be 25±2° C. […] Continue spinning and measuring the temperature and adjusting the setting until the temperature is 25±2° C.
(§4) 3. Prepare blank ultrafiltrate by pipetting blank pH 7.4 serum into an Amicon Centrifree Micropartition devices, centrifuge: fixed angle rotor, 1900 g, 25° C. for 20 minutes. Heat ultrafiltrate in a shaking water bath preheated to 37° C. Measure ultrafiltrate pH and adjust to the pH of the serum (7.4±0.2).
(§5) 4. Pipette 190 ul of blank ultrafiltrate into a set of labeled 1.7 mL polypropylene microfuge tubes for 3 of each level. Pipette 10 μL of the appropriate standard stock 50, 200, 1000 μg/mL to make standards 2.5, 10, and 50 μg/mL respectively. Vortex each tube well. One set of the standard samples are mixed 1:1 with 0.2 M acetic acid and injected onto the HPLC (MSTD). These samples are the membrane standards and will be used to compare to the other standards. Pipette 190 ul of ultrafiltrate and spike with 10 ul of whatever solution (e.g. water) the standards are prepared in to make the zero standard.
(§6) 5. Pipette 475 μL of blank heated pH 7.4 serum into a set of labeled 1.7 mL polypropylene microfuge tubes for 2 of each (Serum A and Serum B). Pipette 25 μL of the 1000 μg/mL standard stock into each tube, vortex each tube well to make serum standard 50 μg/mL. Remove 100 μL of serum and deproteinate with 200 μL 4% TCA while vortexing to make serum time 0 (serum 50, T0). Place serum tubes in a shaking water bath at 37° C. for 10 minutes. Pipet 100 μL of serum out and deproteinate with 200 μL 4% TCA, to make serum time 10 min (serum 50, T10). Pipet 200 ul serum standard 50 μg/mL into an ultrafiltration device, which is not treated with TCA, to determine free drug in samples (Rat Serum 50).
(§7) 6. Transfer serum and standard samples to labeled Amicon Centrifree Micropartition filters, and centrifuge: 1900 g, 25° C. for 10 minutes. The extracted serum samples (T0 and T10) are spun down and supernatant is loaded into HPLC vials.
(§8) 7. 100 μL of ultrafiltrate sample and 100 μL of 0.2 M acetic acid were mixed together to stabilize the compound in ultrafiltrate.
(§9) 8. Transfer entire stabilized ultrafiltrate solution to a labeled autoinjector HPLC vial cap with Teflon septa, and inject on HPLC.
(§10) Peak height or area is used in a weighted linear regression.

rat serum proteins = assay: as above; type: in vitro ADME; conditions: by HPLC
Method: as §1, §2, §3, §4, §5, §6, §7, §8, §9, §10

rhesus serum proteins = assay: as above; type: in vitro ADME; conditions: by HPLC
Method: as §1, §2, §3, §4, §5, §6, §7, §8, §9, §10

S. aureus ATCC29213 = assay: Human serum binding effect: MIC with and without human serum; type: cell-based, Staphylococcus aureus; conditions: 1:1 human serum:MHB
Method: The approximate measurement of the degree of binding of the compound to human serum proteins can be achieved by determination of the effect of the addition of human serum to the medium in which the MIC values against a selected bacterial strain is determined. The ratio of the MIC value obtained in presence of added human serum to the MIC value determined without serum addition was used as a measure of serum binding and the results of such determination are presented below in Table 2.
In addition to the standard MIC determination described above, the staphylococcal strain ATCC29213 is also tested in a ratio 1:1, human serum:MHB to obtain a preliminary estimate of the bioactivity of test compounds in serum: The assay was performed in Human Serum and Mueller-Hinton Broth (HSMHB) with a final bacterial inoculum of 1×10^6 CFU/mL (from an early-log phase culture) and a final volume of 100 μL. Control drugs, including imipenem, vancomycin, dicloxacillin, and new compounds were prepared in double-concentrated Mueller-Hinton broth at a concentration equivalent to 4-fold the desired final concentration. Dilution of compounds were prepared directly in the plates by serial 2-fold dilution in double-concentrated Mueller-Hinton using a multichannel pipette. Positive and negative growth controls were included in each plate. […] The inoculum was prepared by diluting the early log-phase (1 h) culture 1:100 with fresh double-concentrated Mueller-Hinton broth. A volume of 25 μL of the inoculum was added to each well. […] The exact inoculum was determined by applying 10 μl of 10-fold serial dilution of the bacterial suspension on TSA. After overnight incubation at 35° C., colony forming units were manually counted.

[1] = In vitro stability of compounds in rat serum; type: in vitro ADME
Method: In general, compounds from the class of 7-acylamino-3-heteroarylthio-3-cephem carboxylic acids have higher chemical reactivity and lower stability towards chemical or enzymatic decomposition than most typical cephalosporins. […] Results shown in Table 2 represent percentage loss of the initial amount of cephalosporin compound upon 60 min incubation in rat serum.
Procedure for measuring degree of degradation of cephalosporin compounds in rat serum was as follows:
Fresh control rat serum (heparinized and stored frozen) is preincubated at 37° C. for 15 min in a shaking water bath. pH is measured using test strips. 25 μL of a 2 mg/mL solution cephalosporin compound (in water) of is then added to each matrix to make 1000 μL. Solutions were incubated at 37° C. 100 ul of solution was taken out at time=0, 15, 30, and 60 min post dose and added 200 μL 4% trichloroacetic acid, vortexed, and centrifuged for 10 min at 14,000 rpm in an Eppendorf microcentrifuge. 25 μL of each supernatant was injected onto HPLC. Experiment was repeated using 25 μL of a 0.2 mg/mL cephalosporin compound. Degradation is measured as the percentage of HPLC peak area at time t relative to peak area at time 0.
HPLC conditions: Beckman Ultrasphere C18 column. 5 u. 4.6 mm×25 cm. 1 mL/min of 95% 0.1 M ammonium acetate, pH 6, 5% ACN going to 75% buffer/organic over 20 min. UV monitored at 254 and 280 nm.

[2] = system: S. aureus ATCC 13709 (Smith diffuse); assay: Murine lethal bacteremic peritonitis (septicemia) efficacy; type: in vivo, mice
Method: 10 mice/group were injected intraperitoneally with 2.98×10^7 cfu S. aureus ATCC 13709 (Smith diffuse) and treated at 0 and 2 hrs post-challenge with serial two-fold doses of new cephalosporin antibiotic, imipenem and vancomycin subcutaneously in order to determine the ED50. Male Swiss-Webster mice weighing originally 24.2-26.1 g were obtained from Charles Rivers Labs, Hollister, Calif. Mice were housed 10 per cage and given free access to water and mouse chow.
Staphylococcus aureus ATCC 13709 (Smith diffuse) was grown overnight at 37° C. in Brain-heart Infusion broth (BHIB). The following morning, it was subcultured to fresh BHIB and incubated for 4-5 h at 37° C. The log-phase growth cells were washed once with physiological saline and adjusted to the desired concentration by correlation of absorbency at OD 600 nm with predetermined plate counts (NCCLS, 1994). The cell suspension was mixed with an equal volume of sterile 14% hog-gastric mucin (2). Inoculum was kept in an ice bath until used (<1 h).
Mice were challenged via an injection of 0.5 mL bacterial suspension intraperitoneally. The bacterial challenge was 2.98×10^7 cfu/mouse.
Imipenem (Primaxin IV; Lot 7294A), vancomycin (Vancocin; Lot 8MU60W), and new cephalosporin antibiotic were prepared by serial two-fold dilutions to concentrations of 0.078-0.005 mg/mL, 1.2-0.075 mg/mL, 0.3-0.02 mg/mL, 0.3-0.02 mg/mL and 0.3-0.02 mg/mL respectively in sterile water (1). All antibiotics were administered subcutaneously in 0.1 mL volumes at 0 and 2 hours post-challenge. Concentrations of all compounds are based on the weight of the bioactive ingredients.
The 50% effective dose (ED50) was calculated by the probit method (3) utilizing a program entitled Probit (Nycomed-Salutar).

[3] = Staphylococcus aureus, ATCC13709, sc, read-out: Efficacy in murine septicemia % survival

SMILES	Serum Binding human (% of compound bound to serum) (human serum proteins) [%]	Serum Binding rat (% of compound bound to serum) (rat serum proteins) [%]	Serum Binding rhesus (% of compound bound to serum) (rhesus serum proteins) [%]	Human serum binding effect (ratio of MIC value determined with and without human serum added) (S. aureus ATCC29213)	stability of compounds in rat serum ([1]; Table 2 data)	Stability in rat serum (% loss) ([1]; after 60 min exposure to rat serum, 37° C., HPLC) [%]	responders at 0.625 mg/kg [2, 3] [%]	responders at 1.25 mg/kg [2, 3] [%]	responders at 2.5 mg/kg [2, 3] [%]	Efficacy in murine septicemia % survival ([2]; dose 5 mg/kg s.c. at 0 and 2 h post-challenge)
N=C(N)NCCSCc1ncccc1SC1=C(C(=O)O)N2C(=O)[C@@H](NC(=O)/C(=N\O)c3nc(N)sc3Cl)[C@H]2SC1 [Cmpd 15, (7R)-7-[(Z)-2-(2-amino-5-chlorothiazol-4-yl)-2-(hydroxyimino)acetamido]-3-[2-(2-guanidinoethylthiomethyl)pyrid-3-ylthio]-3-cephem-4-carboxylic acid]	83	76	88	2	improved stability	38				
CN[C@H](CC(C)C)C(=O)N[C@H]1C(=O)N[C@@H](CC(N)=O)C(=O)N[C@H]2C(=O)N[C@H]3C(=O)N[C@H](C(=O)N[C@H](C(=O)O)c4cc(O)cc(O)c4-c4cc3ccc4O)[C@H](O)c3ccc(c(Cl)c3)Oc3cc2cc(c3O[C@@H]2O[C@H](CO)[C@@H](O)[C@H](O)[C@H]2O[C@H]2C[C@](C)(N)[C@H](O)[C@H](C)O2)Oc2ccc(cc2Cl)[C@H]1O [Van., Vancomycin, reference compound]	55			2			10	20	60	5/100%
